Tests used:
[1] = test system: human lung carcinoma epithelial cells (A549); assay: POD-GFP protein transduction in vitro, GFP-positive cells by FACS; format: cell-based; conditions: A549, 10 μg protein, 2 hours
Procedure: To evaluate cellular penetration of POD fusion proteins, HER cells were seeded on Lab Tek-II chamber slides and incubated with 10 μg of POD-GFP or GFP for two hours. Following fixation, cells were visualized by light and fluorescence microscopy using an Olympus BX51 microscope with differential interference contrast (DIC) and the appropriate fluorescence filters. Images were captured using a Retiga 2000R FAST camera and QCapture Pro 5.0 (QImaging, British Columbia, Canada). To quantitate protein uptake, 0.2×10^6 of either HER or A549 cells were incubated with 10 μg POD-GFP or GFP for 2 hours. Cells were washed with PBS, pelleted and resuspended in PBS for FACS analysis. Cell membrane integrity was evaluated by measuring the percentage of Propidium Iodide (1 μM) positive cells in the presence of fusion protein. FACS analysis of protein uptake and toxicity was performed using a FACSCAlibur (Becton Dickinson, Franklin. Lakes, N.J.) and results analyzed using CellQuest Pro (Becton Dickinson). 10,000 events were counted for each analysis, which was performed in triplicate and repeated at least once. […]

HER cells [2] = assay: POD-GFP protein transduction in vitro, GFP-positive cells by FACS and localization; format: cell-based, human; conditions: for GFP-positive cells: HER, 10 μg protein, 2 hours
Procedure: (§1) To evaluate cellular penetration of POD fusion proteins, HER cells were seeded on Lab Tek-II chamber slides and incubated with 10 μg of POD-GFP or GFP for two hours. Following fixation, cells were visualized by light and fluorescence microscopy using an Olympus BX51 microscope with differential interference contrast (DIC) and the appropriate fluorescence filters. Images were captured using a Retiga 2000R FAST camera and QCapture Pro 5.0 (QImaging, British Columbia, Canada). To quantitate protein uptake, 0.2×10^6 of either HER or A549 cells were incubated with 10 μg POD-GFP or GFP for 2 hours. Cells were washed with PBS, pelleted and resuspended in PBS for FACS analysis. Cell membrane integrity was evaluated by measuring the percentage of Propidium Iodide (1 μM) positive cells in the presence of fusion protein. FACS analysis of protein uptake and toxicity was performed using a FACSCAlibur (Becton Dickinson, Franklin. Lakes, N.J.) and results analyzed using CellQuest Pro (Becton Dickinson). 10,000 events were counted for each analysis, which was performed in triplicate and repeated at least once.
HER and A549 cells were treated as above for subsequent addition of LysoTracker, ER Tracker (Molecular Probes, Carlsbad, Calif.), or DAPI, and were incubated for one hour. These reagents were removed and cells were fixed with formalin for imaging.
To determine the transduction capabilities of POD-GFP in vitro, each of approximately 0.2×10^6 human lung carcinoma epithelial cells (A549) or HER cells were incubated with 10 μg of each of purified recombinant POD-GFP or control GFP protein for 2 hours and the number of GFP-positive cells were counted by FACS. […] Similarly, 34.2±3.4% and 1.8±0.4%, respectively, of HER cells were GFP-positive when incubated with POD-GFP or GFP, respectively (FIG. 9 panel A).
In contrast to endogenous gene expression, POD-GFP in the Example herein appeared in the cytoplasm of HER cells in a punctate pattern (FIG. 9 panel B), similar to observations in examples above with L-POD peptide and similar to that of an endocytic mechanism of uptake.

HER cells [3] = assay: Toxicity during protein transduction, propidium iodide uptake; format: cell-based, human; conditions: HER cells incubated with protein
Procedure: as §1
Extent of toxicity to cells during protein transduction was measured by uptake of propidium iodide (PI).

[4] = test system: human embryonic retinoblast (HER) cells; assay: Localization of de novo synthesized POD-GFP after plasmid transfection; format: cell-based; conditions: transfection with pPODGFPHis or pGFPHis
Procedure: Human embryonic retinoblast (HER) cells were cultured using previously described methods [Fallaux F J et al. 1996 Hum. Gene Ther. 7: 215-222]. Carcinoma human alveolar basal epithelial cells (A549, American Type Culture Collection, Manassas, Va.) were grown to 70-80% confluence in DMEM media supplemented with 10% fetal bovine serum (FBS). All cell culture procedures were performed in DMEM supplemented with 2% FBS. Transfection of plasmids was carried out using 2:1 μL Lipofectamine: μg plasmid in Opti-MEM media. Forty-eight hours post-transfection, the cells were fixed and stained with DAPI, 4′,6-diamidino-2-phenylindole.
Transfection of human embryonic retinoblast (HER) cells [Fallaux F J et al. 1996 Hum. […] Furthermore, POD-GFP appeared to concentrate in sub nuclear compartments (FIG. 7 panel B, arrowheads).

retina = assay: Subretinal / intravitreal injection of POD-GFP protein in vivo; set-up: species or system C57BL/6J mice
Procedure: (§2) Subretinal and intravitreal injections of the fusion proteins were performed using techniques described in Cashman et al. [2006 Invest Opthalmol Vis Sci 47:3496-3504]. Briefly, 8.5 μg of POD-GFP or 6.6 μg of GFP protein was injected into the subretinal or intravitreal space respectively, of 6-8 week old C57BL/6J mice. Four independent injections were performed and yielded nearly identical results. Six hours post-injection, mice were sacrificed by CO2 inhalation and cervical dislocation. For topical delivery of the POD-GFPHis or GFP-His, C57BL/6J mice were anesthetized with xylazine/ketamine and 2 μl containing 40 μg of protein were dropped onto the […] surface. Forty-five minutes following administration, mice were sacrificed as above and eyes enucleated, washed twice in PBS, and fixed overnight in 4% paraformaldehyde. Eyes were embedded in Optimal Cutting Temperature Compound (Sakura Finetek, Torrance, Calif.) and 14 μm sections were collected using a Microm 550 cryostat.
To determine the transduction properties of POD-GFP […] an amount of 8.5 μg of each of purified POD-GFP or control GFP protein was injected into the subretinal space, i.e., between the retinal pigment epithelium (RPE) and photoreceptors, of 6 week-old male C57BL61J mice. Eyes were harvested after 6 hours and frozen sections were examined by fluorescence microscopy.
Purified POD-GFP, 6.6 μg, or that amount of control GFP protein was injected into the intravitreal space, i.e. between the lens and neural retina of 6 week-old male C57BL6/J mice, and eyes were harvested after 6 hours and frozen sections examined by fluorescence microscopy. […] Unlike with subretinal injection, no POD-GFP signal was detectable in the outer nuclear layer or RPE beyond that of background auto-fluorescence and the overall number of GFP-positive cells was less than that achieved by subretinal injection.

cornea = assay: Topical application of POD-GFP to cornea in vivo; set-up: species or system C57BL6/J mouse; conditions: 40 μg, 45 minutes
Procedure: as §2, with “Eyes were embedded in Optimal Cutting Temperature Compound (Sakura Finetek, Torrance, Calif.) and 14 μm sections were collected using a Microm 550 cryostat.” left out
To further examine localization of POD-GFP, anterior ocular tissues were dissected and the corneas were flat mounted or cross-sectioned and re-examined by fluorescence microscopy. […] In contrast, GFP-fluorescence was readily detected on both flat mounts and cross sections of corneas from mice that received topical application of POD-GFP (FIG. 12 panel B). […] No GFP-signal was detected in corneal cross-sections prepared from mice that received topical application of control GFP.

skin = assay: Topical application of POD-GFP to shaved skin in vivo; set-up: species or system C57BL6/J mice; conditions: 40 μg; for GFP-fluorescence in skin: 24 hours
Procedure: Adult mice were anesthetized as described above and the abdomen shaved to reveal a 2.25 cm^2 area of skin. A dose of 40 μg of protein was applied to the skin for 24 hours. Upon completion of the treatment, animals were sacrificed and the treated skin dissected and fixed overnight in 4% paraformaldehyde and transverse sections were obtained as described herein.
To extend these observations to other organ systems, the potential of transdermal delivery of POD-fusion protein was examined. POD-GFP (40 μg) or control OFF was topically applied to shaved skin of adult C57BL6/J mice. Animals were sacrificed 24 hours later and frozen sections of the treated region were examined by fluorescence microscopy.

HER cells [5] = assay: C-POD delivery of siRNA, silencing of GFP expression; format: cell-based, human; conditions: pEGFP delivered by C-POD, no siRNA
Procedure: pCAGRFP was compacted with C-POD at a ratio of 400 peptide/plasmid molecules. Briefly, 2 μg of DNA and the appropriate concentration of peptide were each suspended in 15 μL of either 100 μM sodium phosphate or 5% dextrose buffer. The peptide and DNA solutions were mixed and incubated for 30 minutes at room temperature prior to addition to HER cells. After 48 hours, cells were resuspended in PBS for FACS analysis. For electron microscopy, peptide/DNA complexes were prepared as above. Particles were bound to glow-discharged copper grids, stained with urinyl acetate, and visualized on a CMIO Transmission Electron Microscope (Philips) using Digital Micrograph software (Gatan, Inc). C-POD was used to compact both pd2-EGFP-NI and GFP Duplex I at concentrations of 450 particles/DNA molecule and 25 particles/duplex molecule, respectively, in 100 mM sodium phosphate buffer using the same procedures described above. Compacted pd2-EGFP-NI DNA, 2 μg, and 70 pmoles of GFP Duplex I diluted in DMEM+2% FBS were added simultaneously to HER cells for 4 hours. Growing medium was then added to cells and the incubation continued for 44 additional hours. […] The amount of fluorescence resulting from the Qdot-peptide complex was determined using a fluorometer and an equivalent amount of unbound Strep-Qdot was added separately as control. […] Uptake of Qdots was determined by fluorescent microscopy as described above. […]

E. coli = assay: Microbicidal activity, colony count after plating; format: cell-based; conditions: 2 hours at 37° C., plating on LB agar
Procedure: Lissamine conjugated POD (L-POD) and either heparan sulfate or chondroitan sulfate were incubated together at each of molar ratios of 1:3.33, 1:6.67, and 1:8 in water for 30 minutes at room temperature. The complex was diluted in DMEM+2% FBS and added to 0.2×]06 HER cells for 5 minutes at 37° C. Following incubation, cells were trypsinized and suspended in PBS for FACS analysis as described above. To measure microbicidal activity of C-POD, XL-1 Blue cells (Stratagene, La Jolla, Calif.) were grown to mid logarithmic phase (OD600=0.600) and washed twice in a solution of 10 mM Tris, pH 7.4 and 5 mM Glucose. The cells were resuspended in 10 mL of the same solution and […] of the suspension was incubated with C-POD in a final volume of 50 μL. The peptide/bacteria cell solution was rocked for 2 hours at 37° C. The peptide-treated bacteria was diluted 1:4500 with LB broth, plated on agar, and grown overnight at 37° C. The following day, the bacterial colonies on each plate were counted to quantify peptide-related reduction in growth.
Since endophthalmitis, an infection within the eye, is regularly a complicating factor in drug delivery to ocular tissues [Ho J et al. 2007 Int Opthalmol Clin 47: 199-208], C-POD was examined for potential microbicidal activities. E. coli cells grown to mid-log phase were incubated with either H20 only or C-POD suspended in H20 at concentrations ranging from 0.03 μM to 60 μM, and cell number was determined by plating samples on LB agar. […] Greater concentrations of C-POD completely eliminated bacterial growth.

For “GFP: His-tagged GFP control protein [reference compound]”, the GFP-positive cells [1] was 1.4±0.4%, the GFP-positive cells (HER cells [2]) was 1.8±0.4% and the PI-positive cells (HER cells [3]) was 3.2±2.7%. The “localization of expressed protein” value [4] was “relatively diffuse cytoplasmic and nuclear localization”, the “detection in retina by fluorescence microscopy” value (“detection in retina” for short) (retina; intravitreal, 6.6 μg, 6 hours) was “not detected in retinal cells above background auto-fluorescence” and the “detection in retina” value (retina; subretinal, 8.5 μg, 6 hours) was “barely discernible above background auto-fluorescence”. For the same substance, the “presence on outer surface of the eye” value (cornea) was “washed away” and the GFP-fluorescence in skin (skin) was “Only minimal GFP-fluorescence”.

For “POD-GFP: His-tagged POD-GFP fusion protein”, the GFP-positive cells [1] was 35.3±0.9%, the “cellular localization of exogenously added protein” value (HER cells [2]; HER cells) was “colocalize in part with Lysotracker” and the GFP-positive cells (HER cells [2]) was 34.2±3.4%. The PI-positive cells (HER cells [3]) was 2.8±3.8%, the “localization of expressed protein” value [4] was “relatively weak cytoplasmic and intense nuclear localization” and the “binding to lens capsule” value (retina; intravitreal injection) was “very strong affinity”. The “detection in retina” value (retina; intravitreal, 6.6 μg, 6 hours) was “readily detected in ganglion cells”, the “detection in retina” value (retina; subretinal, 8.5 μg, 6 hours) was “abundantly present in the outer nuclear layer” and the “transduction of the ONL, share of the retinal surface” value (retina; subretinal, 8.5 μg, 6 hours) was “up to 40%”. For the same substance, the “presence on outer surface of the eye” value (cornea) was “detected on most of the ocular surface”, the “duration of binding to mouse skin” value (skin) was “at least 24 hours” and the GFP-fluorescence in skin (skin) was “significantly GFP-positive”.

With “CGGG(ARKKAAKA)4 (CGGGARKKAAKAARKKAAKAARKKAAKAARKKAAKA; The peptide was designed and synthesized) [C-POD]” the GFP-positive cells (HER cells [5]) was 49.13±2.23%, the “concentration giving almost complete inhibition of bacterial growth” value (E. coli) was 24.0 µM and the “concentration giving significant inhibition of bacterial growth” value (E. coli) was 0.30 µM.
